Values of other authors in patent publication US10695378B2, “Direct reprogramming of cells to cardiac myocyte fate” (Duke University, priority 2010, dated 2020).
Values belong to the compound of their own block, whether it stands above or below them.

Experiments:
[1] = system: TGFβ-induced epithelial-to-mesenchymal transition
JAK1 = settings: small molecule inhibitors of JAK-1
[2] = not given; remark: listed apart in the source
[3] = not given; remark: listed apart in the source

IC50 values (in words) (JAK1): nanomolar range
Structure (SMILES): CC(C)(C)c1nc2c3ccc(F)cc3c3c(=O)[nH]ccc3c2[nH]1 [JAK inhibitor 1, 2-(1,1-Dimethylethyl)-9-fluoro-3,6-dihydro-7H-benz[h]-imidaz[4,5-f]isoquinolin-7-one]
phosphorylation of STATS: blocks

soluble in DMSO [2]: > 20 mg/mL
Structure (SMILES): O=C(O)C=C(CCc1ccc(Cl)cc1)c1ccccc1 [PS48, 5-(4-Chloro-phenyl)-3-phenyl-pent-2-enoic acid]

therapeutic range ([3]; currently established therapeutic range): 50 to 120 µg/mL | Serum or plasma valproic acid concentrations ([3]; during controlled therapy): 20 to 100 mg/L
Structure (SMILES): CCCC(CCC)C(=O)O [Valproic acid, 2-propylpentanoic acid]

Continued, compound first:

Structure (SMILES): Cc1cccc(-c2nn(C(=S)Nc3ccccc3)cc2-c2ccnc3ccccc23)n1 [A83-01, 3-(6-Methyl-2-pyridinyl)-N-phenyl-4-(4-quinolinyl)-1H-pyrazole-1-carbothioamide]
phosphorylation of Smad2 (Smad2): blocks | TGFβ-induced epithelial-to-mesenchymal transition [1]: inhibits

Structure (SMILES): N#CC[C@H](C1CCCC1)n1cc(-c2ncnc3[nH]ccc23)cn1 [INCB018424]
IC50 values (in words) (JAK1): nanomolar range

Structure (SMILES): O=C(O)C(Cc1c[nH]c2ccccc12)N1C(=O)c2ccccc2C1=O (stereo not shown) [RG108, 2-(1,3-Dioxo-1,3-dihydro-2H-isoindol-2-yl)-3-(1H-indol-3-yl)propionic acid]
doubling time in culture (human tumor cell line): increases | human tumor cell line proliferation (human tumor cell line): inhibit
